Patent US6641840B2, “Sustained release formulations for growth hormone secretagogues” (Pfizer Inc., priority 2000, dated 2003)

Legend:
IGF-1 = test: Clinical study in subjects 65-84 years: change from baseline in IGF-1; assay type: in vivo, human
Protocol: This clinical study was performed in male and female subjects between the ages of 65 and 84 years inclusive, and whose baseline IGF-1 levels were <150 ng/ml.
The study was a double blind, parallel group, placebo-controlled study.
(All dosage forms in this part of the study were immediate release dosage forms.)
(§1) In addition, an extension study was conducted to evaluate the relationship between peak GH concentrations or IGF-I versus surrogate responses such as lipid concentrations and body composition. A sustained release (SR) formulation was also evaluated, either alone or combined with an immediate release (IR) formulation (24-30 patients per group). [16 mg (10 SR, 6 IR) h.s. (h.s. means at bedtime); 16 mg (10 SR, 6 IR) h.s. every third day; 16 mg SR h.s.; and placebo.] The formulations are set forth below.
Study active compound was supplied in blisterpaks, with five tablets to be taken at time of each dosing. Subjects were instructed to take the tablets with one glass of water at bedtime.
Return visits were scheduled at 1, 2, and 4 weeks after baseline. […] The baseline and all subsequent follow-up visits were performed at the same time of day (between approximately 8-11 am).
(§2) A follow-up evaluation was made at 1, 2, and 4 weeks. Vital signs were obtained and the skin of the face, trunk and upper extremities was inspected.
The primary efficacy endpoint was the percentage change from baseline in IGF-1. Secondary outcomes included insulin-like growth factor binding protein 3 (IGFBP-3), cholesterol subfractions, and percent changes in total adipose and total lean tissue. Changes in each of the secondary efficacy measures over time were examined systematically either graphically or in tabular form and summarized using appropriate descriptive statistics as is well known in the art.

growth hormone = test: Clinical extension study: growth hormone secretion profile (GH peaks); assay type: in vivo, human
Protocol: as §1
In addition to this schedule, subjects at selected sites in the extension study were studied during two overnight admissions on the first night of dosing and again on day 28 of dosing. Growth hormone secretion and pharmacokinetic sampling was carried out.
as §2
In addition, subjects at selected study centers were admitted to an overnight unit on day 28 of dosing. Growth hormone secretion profile, pharmacokinetics, and vital sign determination were carried out.

[1] = Osmotic agent selection based on active compound solubility screening; assay type: physicochemical; conditions: 37 °C, aqueous with cosolvent or surfactant or cyclodextrin
Protocol: The osmogens were screened by preparing a saturated solution (unless otherwise noted) of the candidate osmogen in water at 37° C. for 2 hours, and filtering the undissolved portion as described in Example 5.

[2] = Excipient selection based on active compound solubility screening; assay type: physicochemical; conditions: for solubility at 5 min: filtrate of excipient solution in water, 37 °C, thermodynamic from solid
Protocol: Such excipients are useful in making osmotic sustained release tablets. […] The active compound solubility measured in this manner exceeded 150 mgA/ml (mgA is the milligrams of active compound).
The excipients were screened by preparing a saturated solution (unless otherwise noted) of the candidate excipient in water at 37° C. for 2 hrs, and filtering the undissolved portion. […] The solution was maintained at 37° C. for 5 minutes prior to making the visual observation for any undissolved particulates.

rat pituitary cells = test: Pituitary cell desensitization - intracellular calcium assay; assay type: cell-based
Source text: Thus, it appears that sustained release formulations would not provide the desired in vivo response. The experiment was designed so that changes in intracellular calcium concentration could be continuously monitored during successive exposures of the same cells to the indicated test substances.
Rat pituitary cells were isolated as described in Example 3 and plated onto poly-D-lysine-coated glass coverslips, one coverslip per well in 12-well plates, at a density of 3-4×10^5 cells per well. Assays were performed 3-4 days after plating. Cells were loaded with 5 μM fura-2 AM (Molecular Probes, Eugene, Oreg.), a calcium-sensitive fluorescent dye, by incubation for 30 min at room temperature. Fura-2 was dissolved in dimethylsulfoxide at 5 mM, then diluted into KRH buffer (115 mM NaCl, 5.4 mM KCl, 1.8 mM CaCl2, 1 mM MgCl2, 0.96 mM NaH2PO4, 25 mM HEPES, 6 mM glucose and 0.05% bovine serum albumin, adjusted to pH 7.3)
To assay changes in intracellular calcium concentration, a coverslip with attached cells was mounted in a perfusion chamber on the stage of an inverted microscope (Zeiss Axiovert 135 with epifluorescence, Geschaftsbereich Mikroscopie, Oberkochen, Germany) and continuously superfused at room temperature. After superfusion with KRH for 1-2 min, baseline fluorescence was recorded. Each test substance was applied for 2 min, followed by washout with KRH prior to stimulation with the next test substance. Up to 20 individual cells per field were selected for recording and were excited alternately at wavelengths of 380 nm or 340 nm (slit width 15 nm). Fluorescence emission at 510 nm was collected at 5 sec intervals by a low light CCD camera (Hamamatsu Photonics, Hamamatsu City, Japan), and digitized images for the two excitation wavelengths were analyzed using Videoprobe software (ETM Systems, Irvine, Calif.) to determine the 340 nm/380 nm fluorescence ratio for individual cells during each time interval. The 340 nm/380 nm fluorescence ratio is proportional to the concentration of intracellular calcium.

Compound: CN1N=C2CCN(C(=O)[C@@H](COCc3ccccc3)NC(=O)C(C)(C)N)C[C@@]2(Cc2ccccc2)C1=O.O=C(O)C(O)C(O)C(=O)O [Compound A]
- average rise of IGF-I (IGF-1; extension study, 16 mg (10 SR, 6 IR) h.s. every third day): approximately 10%
- IGF-I (IGF-1; extension study, each of the 2 groups dosed daily (16 mg (10 SR, 6 IR) h.s.; 16 mg SR h.s.)): increases
- increase in IGF-I (IGF-1; first leg, both groups administered 9 mg daily (3 mg tid; 3 mg am and 6 mg pm), immediate release, subjects 65-84 years): approximately 35%
- GH peak heights, Q 3 day group greater than QD group (growth hormone; 16 mg (10 SR, 6 IR) every third day vs daily): 1.52 ng/mL
- GH peaks, average (growth hormone; group receiving SR alone (16 mg SR h.s.), after 4 weeks): 2 ng/mL
- GH peaks, average (growth hormone; group receiving SR alone (16 mg SR h.s.), at baseline): less than 4 ng/ml
- GH peaks, average (growth hormone; groups receiving 6 mg IR (with 10 mg SR), at baseline): ≥ 15 ng/mL
- GH peaks, average (growth hormone; groups receiving 6 mg IR (with 10 mg SR), by 4 weeks): 4 to 6 ng/mL
- solubility at 5 min ([1]; filtrate of osmogen solution in water, fructose solution 250 mg/ml (below saturation), read-out: COMPOUND A Solubility): < 50 mg/mL
- solubility at 5 min ([1]; filtrate of osmogen solution in water, visual screening, read-out: active compound solubility measured in this manner): > 150 mg/mL
- solubility at 5 min ([1]; filtrate of saturated lactose solution in water, saturated lactose solution, approx. 200 mg/ml, read-out: COMPOUND A Solubility): > 150 mg/mL
- solubility at 5 min ([1]; filtrate of saturated mannitol solution in water, saturated mannitol solution, approx. 180 mg/ml, read-out: COMPOUND A Solubility): > 150 mg/mL
- solubility at 5 min ([1]; filtrate of saturated sodium bitartrate solution in water, saturated sodium bitartrate solution, approx. 110 mg/ml, read-out: COMPOUND A Solubility): > 150 mg/mL
- solubility at 5 min ([1]; sorbitol solution in water, 250 mg/ml (below saturation), sorbitol solution 250 mg/ml (below saturation), read-out: COMPOUND A Solubility): > 150 mg/mL
- solubility at 5 min ([1]; xylitol solution in water, 250 mg/ml (below saturation), xylitol solution 250 mg/ml (below saturation), read-out: COMPOUND A Solubility): < 50 mg/mL
- visual observation on addition of Compound A ([2]; L-lysine solution 50 mg/ml, 37° C.): cloudy gel
- solubility at 5 min ([2]; aqueous buffer, L-lysine solution 50 mg/ml (below saturation), 37° C., read-out: COMPOUND A Solubility): < 50 mg/mL
- solubility at 5 min ([2]; aqueous buffer, saturated L-arginine solution, approx. 150 mg/ml, 37° C., read-out: COMPOUND A Solubility): < 50 mg/mL
- solubility at 5 min ([2]; aqueous buffer, saturated L-aspartic acid solution, approx. 7 mg/ml, 37° C., read-out: COMPOUND A Solubility): > 150 mg/mL
- solubility at 5 min ([2]; aqueous buffer, saturated ascorbic acid solution, approx. 400 mg/ml, 37° C., read-out: COMPOUND A Solubility): > 150 mg/mL
- solubility at 5 min ([2]; aqueous buffer, saturated citric acid solution, approx. 600 mg/ml, 37° C., read-out: COMPOUND A Solubility): > 150 mg/mL
- solubility at 5 min ([2]; aqueous buffer, saturated fumaric acid solution, approx. 10 mg/ml, 37° C., read-out: COMPOUND A Solubility): > 150 mg/mL
- solubility at 5 min ([2]; aqueous buffer, saturated potassium phosphate monobasic solution, approx. 400 mg/ml, 37° C., read-out: COMPOUND A Solubility): < 50 mg/mL
- solubility at 5 min ([2]; aqueous buffer, saturated sodium bitartrate solution, approx. 110 mg/ml, 37° C., read-out: COMPOUND A Solubility): > 150 mg/mL
- solubility at 5 min ([2]; aqueous buffer, saturated sodium citrate solution, approx. 520 mg/ml, 37° C., read-out: COMPOUND A Solubility): < 50 mg/mL
- solubility at 5 min ([2]; aqueous buffer, saturated sodium phosphate monobasic solution, approx. 1000 mg/ml, 37° C., read-out: COMPOUND A Solubility): < 50 mg/mL
- solubility at 5 min ([2]; aqueous buffer, saturated sodium phosphate tribasic solution, approx. 290 mg/ml, 37° C., read-out: COMPOUND A Solubility): < 50 mg/mL
- solubility at 5 min ([2]; aqueous buffer, saturated succinic acid solution, approx. 80 mg/ml, 37° C., read-out: COMPOUND A Solubility): > 150 mg/mL
- solubility at 5 min ([2]; aqueous buffer, sodium bitartrate buffer, read-out: solubility of the active compound): > 150 mg/mL
- solubility at 5 min ([2]; aqueous buffer, tartaric acid solution 50 mg/ml (below saturation), 37° C., read-out: COMPOUND A Solubility): > 150 mg/mL
- solubility at 5 min ([2]; aqueous with cosolvent or surfactant or cyclodextrin, cyclodextrin, sulfobutylether solution, approx. 1000 mg/ml, 37° C., read-out: COMPOUND A Solubility): 100 to 150 mg/mL
- solubility at 5 min ([2]; aqueous with cosolvent or surfactant or cyclodextrin, polyethylene glycol (Carbowax 3350) 50 mg/ml, 37° C., read-out: COMPOUND A Solubility): > 150 mg/mL
- solubility at 5 min ([2]; aqueous with cosolvent or surfactant or cyclodextrin, sodium lauryl sulfate solution, approx. 50 mg/ml, 37° C., read-out: COMPOUND A Solubility): 50 to 100 mg/mL
- solubility at 5 min ([2]; aqueous with cosolvent or surfactant or cyclodextrin, sulfobutylether cyclodextrin, read-out: active compound substance solubility): 100 to 150 mg/mL
- solubility at 5 min ([2]; saline or isotonic, saturated potassium chloride solution, approx. 360 mg/ml, 37° C., read-out: COMPOUND A Solubility): < 50 mg/mL
- solubility at 5 min ([2]; saline or isotonic, saturated sodium chloride solution, approx. 360 mg/ml, 37° C., read-out: COMPOUND A Solubility): < 50 mg/mL
- solubility at 5 min ([2]; visual screening, 37° C., read-out: active compound solubility measured in this manner): > 150 mg/mL
- solubility at 5 min ([2]; water, calcium stearate < 1 mg/ml, prepared at 2 mg/mL, 37° C., read-out: COMPOUND A Solubility): > 150 mg/mL
- solubility at 5 min ([2]; water, magnesium stearate < 1 mg/ml, 37° C., read-out: COMPOUND A Solubility): > 150 mg/mL
- solubility at 5 min ([2]; water, microcrystalline cellulose (Avicel PH102) < 1 mg/ml, prepared at 80 mg/ml, 37° C., read-out: COMPOUND A Solubility): > 150 mg/mL
- solubility at 5 min ([2]; water, microcrystalline cellulose, silicified (Prosolv SMCC50) < 1 mg/ml, prepared at 80 mg/ml, 37° C., read-out: COMPOUND A Solubility): > 150 mg/mL
- visual observation on addition of Compound A ([2]; saturated potassium chloride solution, 37° C.): cloudy gel
- visual observation on addition of Compound A ([2]; saturated sodium chloride solution, 37° C.): cloudy gel
- visual observation on addition of Compound A ([2]; saturated sodium citrate solution, 37° C.): cloudy gel
- visual observation on addition of Compound A ([2]; saturated sodium phosphate monobasic solution, 37° C.): cloudy gel
- visual observation on addition of Compound A ([2]; saturated sodium phosphate tribasic solution, 37° C.): cloudy gel
- visual observation on addition of Compound A ([2]; sodium lauryl sulfate solution 50 mg/ml, 37° C.): clear gel
- calcium flux on re-exposure to Compound A after washout (rat pituitary cells; cells that initially responded to Compound A or GHRP-6): refractory
- desensitization between GHRH and Compound A (rat pituitary cells; intracellular calcium, successive exposures): no desensitization
- cellular responses (intracellular calcium) on repeated exposure (rat pituitary cells; successive 2 min exposures with washout): homologous desensitization
